Assay results reported in patent publication US20150306107A1, “SAA Derivative Compound Restores eNOS And Inhibits Oxidative Stress-Induced A Diseases In Hypoxia” (JANSFAT BIOTECHNOLOGY CO., LTD., priority 2014, published 2015).

Key:
hypoxic rats = test: Right ventricular hypertrophy (RV/LV+S, right heart index) after long-term hypoxia; format: in vivo, rat
Description: The right lobes of the rat lungs and heart of six rats from each group were cut and soaked in formalin, dehydrated through graded alcohols, and embedded in paraffin wax. The lung tissue specimens fixed with formalin (4%) were embedded in paraffin for one hour at 4° C., cut into 4-μm-thick sections, and subjected to H&E staining before examination by light microscope. In our histopathological study, we measured the thickening of the medial wall of the small intrapulmonary arteries under an Eclipse TE2000-S (Nikon) microscope. In the heart tissues, the 4-μm-thick paraffin sections were cut from paraffin-embedded tissue blocks and de-paraffinized by immersion in xylene and rehydrated as previously described (Bivalacqua T J, et al., PLoSONE 8: e68028. doi:10.1371/journal. pone.0068028). The slices were then dyed with H&E. After gently rinsing with water, each slide was dehydrated through graded alcohols and finally soaked in xylene twice. The relative cardiac weight of right ventricle (RV)/[left ventricle (LV)+intraventricular septum (S)] ratio (i.e. right heart index) was calculated using right ventricle/left ventricle+septum (RV/LV+S). Measurements were obtained with Histolab software (Microvision Instruments, Evry, France).

eNOS = test: Immunohistochemistry of eNOS in pulmonary artery wall after long-term hypoxia; format: in vivo, rat
Description: (§1) For histological analysis, the rat pulmonary right lung sections or pulmonary artery were fixed in 4% formaldehyde for 1 hour at 4° C. After washing with phosphate buffer saline (PBS), they were sent for paraffin-embedded serial-sections. Serial cross-sections 7 μm thick were obtained from the cross-section of each pulmonary artery. Tissue sections were deparaffinized and rehydrated in an ethanol series. After tissue rehydration, endogenous peroxidase activity was quenched with 3% hydrogen peroxide for 30 minutes, and the sections were gently washed in PBS. Non-specific binding was blocked by incubation with 1% nonimmune bovine serum albumin (BSA) in PBS for 30 minutes at room temperature.
(§2) The tissue sections were incubated for 1 hour at room temperature with antibody against VEGF (ab1442, Millipore) or against eNOS (ab5589, Abcam) diluted 1:200 in PBS with 1% BSA. After being washed with PBS, the sections were incubated for 1 hour at room temperature with biotinylated goat antibody against rabbit (Dako, E-0432) and diluted 1:200 in PBS for 30 minutes at room temperature. The reaction was visualized by the addition of 3-3-diaminobenzidine (DAB) in a working solution of DAB substrate kit for peroxidase (vector lab, SK-4100) at room temperature for 5 minutes. The sections were washed in PBS for 10 minutes between each step, and counterstained with haematoxylin. […]

VEGF [1] = test: Immunohistochemistry of VEGF in pulmonary artery wall after long-term hypoxia; format: in vivo, rat
Description: as §1, §2

ROCK II = test: Western blotting of ROCK II in lung tissue after long-term hypoxia; format: in vivo, rat; conditions: hypoxia 21 days; hypoxia 144.7±12.6%
VEGF [2] = test: Western blotting of VEGF in lung tissue after long-term hypoxia; format: in vivo, rat; conditions: hypoxia 21 days; hypoxia 168.9±24.6%
PDE5A = conditions: hypoxia 21 days; % of the normal level; hypoxia 43.8±12.6%
[3] = system: reactive oxygen species (ROS) of lung tissues; conditions: long-term hypoxia
Description: In our in vivo hypoxic experiments, 10-week old male Wistar rats were equally divided into four groups: a normoxia group, a hypoxia group, a hypoxia+SPAAX-1 or SPAAX-1 RX complex group, and a hypoxia+Sildenafil or Sildenafil RX complex group. All the rats were maintained on a 12-h light/12-hr dark cycle at 25±1° C. and were provided with food and water ad libitum. The normoxia group was housed in standard normoxic conditions and the other three treated groups were continuously housed in a hypoxic chamber (10% O2) for 21 days, except for a 30-min interval each day when the chamber was cleaned (FIG. 2). During which, a normoxic gas mixture was prepared from compressed air.
Pulmonary ROS was measured using 2′-7′-dichloro-fluorescein (H2DCF-DA, Molecular Probe, USA). Briefly, 10 μl of lung tissue extract was diluted 100-fold with cold PBS and labelled with 5 μmol/L 2′-7′-dichlorofluorescein, and the mixture was incubated at 37° C. for 30 minutes and put in a centrifuge (1000 rpm) for 5 min. Fluorescence was measured at 485 nm excitation and 530 nm emission to determine the concentration of H2O2 (FLUOstar Galaxy, Germany).

NOx in lung tissue = conditions: 21 days of hypoxia; control group 100%, hypoxia 59.8±3.7%
Description: All the rats were maintained on a 12-h light/12-hr dark cycle at 25±1° C. and were provided with food and water ad libitum. The normoxia group was housed in standard normoxic conditions and the other three treated groups were continuously housed in a hypoxic chamber (10% O2) for 21 days, except for a 30-min interval each day when the chamber was cleaned (FIG. 2). During which, a normoxic gas mixture was prepared from compressed air.
Production of NO, represented by its metabolite nitrate+nitrite (NOx), in lung tissue extracts was determined using the Griess method (Chung H H et al, Br J Pharmacol 160: 971, 2010; Vascular Pharmacology 53: 239, 2010). The three step Greiss test converts nitrate (NO3^−) into nitrite (NO2^−), resulting in a total NO2^− concentration from a standard calibration curve. The lung tissue extracts were homogenized, washed with PBS and incubated in a lysis buffer in addition to a protease inhibitor cocktail (Sigma, St. Louis, Mo.) to obtain the extracts of lung proteins. […] The samples were then incubated (25° C, 10 min) with Griess reagent [N-(1-naphthyl)-ethylenediamine: 0.2% (w/v), sulphanilamide: 2% (w/v), solubilized in double-distilled water: 95% and phosphoric acid: 5% (v/v)] and the absorbance measured at 540 nm. […]

Cn1c(=O)c2c(ncn2CCN2CCN(c3ccccc3Cl)CC2)n(C)c1=O.O=C1O[C@H]([C@@H](O)CO)C(O)=C1O [SPAAX-1 ascorbate complex, 7-[2-[4-(2-chlorobenzene)piperazinyl]ethyl]-1,3-dimethylxanthine.ascorbic acid]
thickness of Right ventricular (hypoxic rats; compared to the hypoxia state): reduced | right heart index, RV/(LV+S) weight ratio (hypoxic rats; hypoxia 21 days, relative to normoxia rats, hypoxia 184.6±0.7%): 117.4±2.6% | eNOS immunostaining reactivity of pulmonary artery (eNOS): restored the decay of eNOS | VEGF immunostaining reactivity of pulmonary artery (VEGF [1]): reduced | ROCKII expression in lung tissue (ROCK II): 50.32±7.9% | VEGF expression in lung tissue (VEGF [2]): 120.9±22.2% | PDE5A expression in lung tissue (PDE5A): 76.9±4.9% | hypoxia-induced increase of dichlorofluorescein (ROS of lung tissues) [3]: reduced | levels of NOx in lung tissue (NOx in lung tissue): 86.3±17.3%
